{"source": "paper PMC11850127", "about": "(The Journal of Biological Chemistry, 2025)", "key": {"homomeric α9 nAChRs [1]": {"system": "homomeric α9 nAChRs", "conditions": "cited from earlier work"}, "human α10 nAChR": {"system": "human α10 nAChR", "assay_type": "cell-based, human (expressed in Xenopus laevis oocytes)"}, "[2]": {"system": "uninjected oocytes and oocytes injected with RIC-3 alone", "assay_type": "cell-based, Xenopus laevis"}, "[V13′T]α10 nAChR": {"system": "[V13′T]α10 nAChR", "assay_type": "cell-based, human (expressed in Xenopus laevis oocytes)"}, "(α4)2(β2)3": {"system": "(α4)2(β2)3", "conditions": "cited from earlier work"}, "homomeric α9 nAChRs [3]": {"system": "homomeric α9 nAChRs", "conditions": "cited from earlier work", "remark": "listed apart in the source"}, "[V13′T]α10 nAChRs [4]": {"molecular_target": "T1, [V13′T]α10 nAChRs (Homo sapiens, UniProt Q9GZZ6, V280T)", "T1 sequence (Q9GZZ6 25-450 V280T limits assumed)": "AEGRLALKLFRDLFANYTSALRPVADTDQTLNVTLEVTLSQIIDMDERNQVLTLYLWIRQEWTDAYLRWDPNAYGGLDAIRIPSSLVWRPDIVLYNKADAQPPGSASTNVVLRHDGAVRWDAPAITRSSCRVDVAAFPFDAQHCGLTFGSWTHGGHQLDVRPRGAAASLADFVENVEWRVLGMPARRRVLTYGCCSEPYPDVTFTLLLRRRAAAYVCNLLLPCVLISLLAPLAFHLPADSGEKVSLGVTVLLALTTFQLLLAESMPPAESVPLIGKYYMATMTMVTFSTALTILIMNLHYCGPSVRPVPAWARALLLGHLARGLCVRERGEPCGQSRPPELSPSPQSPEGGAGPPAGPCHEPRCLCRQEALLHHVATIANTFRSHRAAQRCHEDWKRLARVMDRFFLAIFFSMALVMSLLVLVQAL", "experiment": "cell-based", "assay_type": "cell-based, human (expressed in Xenopus laevis oocytes)"}, "(α4)3(β2)2": {"system": "(α4)3(β2)2", "conditions": "cited from earlier work"}, "[V13′T]α10 nAChRs [5]": {"molecular_target": "T1, [V13′T]α10 nAChRs", "assay_type": "cell-based, human (expressed in Xenopus laevis oocytes)"}, "homomeric α10 nAChRs": {"system": "homomeric α10 nAChRs", "conditions": "cited from earlier work"}, "α9α10 nAChRs": {"system": "α9α10 nAChRs", "conditions": "cited from earlier work"}, "α9 homomers": {"system": "α9 homomers", "conditions": "cited from earlier work"}, "homomeric α7 nAChRs": {"system": "homomeric α7 nAChRs", "conditions": "cited from earlier work"}, "human α10 nAChRs": {"system": "human α10 nAChRs", "assay_type": "cell-based, human (expressed in Xenopus laevis oocytes)"}, "muscle type nAChRs": {"system": "muscle type nAChRs", "conditions": "cited from earlier work"}}, "note": "“Also recorded” adds a separate entry of the source. Like-named read-outs stand apart in the source and are kept apart here."}
{"compound": "CC(=O)OCC[N+](C)(C)C", "note": "[ACh, Acetylcholine]", "values": [{"measurement": "ACh-induced currents", "setting": "homomeric α9 nAChRs [1]", "result": "small currents"}, {"measurement": "ACh-induced current, average amplitude", "setting": "human α10 nAChR", "result": 17, "unit": "nA"}, {"measurement": "mean ACh-induced response", "setting": "human α10 nAChR", "result": "−7 ± 6", "unit": "nA"}, {"measurement": "response to ACh, α10 + RIC-3 versus α10 only", "setting": "human α10 nAChR", "result": "significantly greater than those observed in α10-only injected oocytes; also recorded: significantly larger responses"}, {"measurement": "range of ACh-induced response", "setting": "human α10 nAChR; n = 12", "result": "−2 to −24", "unit": "nA"}, {"measurement": "ACh-induced current in uninjected oocytes", "setting": "[2]; n = 10", "result": "did not produce currents; also recorded: No ACh-induced currents were observed"}, {"measurement": "ACh-induced current in oocytes injected with RIC-3 alone", "setting": "[2]; n = 20", "result": "did not produce currents; also recorded: No ACh-induced currents were observed"}, {"measurement": "effect of absence of Ca^2+ on ACh-evoked currents", "setting": "[V13′T]α10 nAChR", "result": "did not substantially reduce ACh-evoked currents"}, {"measurement": "mean ACh-induced response without actinomycin D", "setting": "[V13′T]α10 nAChR", "result": "−208 ± 227", "unit": "nA"}, {"measurement": "range of ACh-induced response", "setting": "[V13′T]α10 nAChR; n = 12", "result": "−117 to −1120", "unit": "nA"}, {"measurement": "affinity for acetylcholine", "setting": "(α4)2(β2)3", "result": "high"}, {"measurement": "ACh-induced currents", "setting": "homomeric α9 nAChRs [3]", "result": "small currents"}, {"measurement": "ACh-induced currents versus those induced by choline or nicotine", "setting": "[V13′T]α10 nAChRs [4]", "result": "significantly larger"}, {"measurement": "Hill slope", "setting": "[V13′T]α10 nAChRs [4]", "result": "0.82 (0.67–1.01)"}, {"measurement": "affinity for acetylcholine", "setting": "(α4)3(β2)2", "result": "low"}]}
{"compound": "CN1[C@@H]2CC[C@H]1C[C@@H](OC(=O)C(CO)c1ccccc1)C2", "note": "(stereo partly drawn) [atropine]", "values": [{"measurement": "ACh-evoked response, percent of baseline", "setting": "[V13′T]α10 nAChRs [5]", "result": "230 ± 44", "unit": "%"}, {"measurement": "enhancement of ACh-evoked response", "setting": "[V13′T]α10 nAChRs [5]", "result": "230 ± 44", "unit": "%"}, {"measurement": "onset and reversal of potentiation", "setting": "[V13′T]α10 nAChRs [5]", "result": "rapid onset and reversal"}, {"measurement": "potentiation of ACh-evoked currents (in words)", "setting": "[V13′T]α10 nAChRs [5]", "result": "rapid, significant potentiation"}]}
{"compound": "COc1cc2c(cc1OC)[C@@]13CCN4CC5=CCO[C@H]6CC(=O)N2[C@H]1[C@H]6[C@H]5C[C@H]43", "note": "[brucine]", "values": [{"measurement": "enabling of function/expression of homomeric α10 nAChRs", "setting": "homomeric α10 nAChRs", "result": "can enable the function of homomeric α10 mammalian nAChRs"}]}
{"compound": "C[N+](C)(C)CCO", "note": "[choline]", "values": [{"measurement": "EC50", "setting": "[V13′T]α10 nAChRs [4]", "result": 200, "unit": "µM"}, {"measurement": "Hill slope", "setting": "[V13′T]α10 nAChRs [4]", "result": "0.49 (0.41–0.60)"}, {"measurement": "agonist class", "setting": "[V13′T]α10 nAChRs [4]", "result": "partial agonists"}, {"measurement": "efficacy of choline relative to nicotine", "setting": "[V13′T]α10 nAChRs [4]", "result": "more efficacious than nicotine"}, {"measurement": "efficacy relative to ACh", "setting": "[V13′T]α10 nAChRs [4]", "result": "lower efficacy than ACh"}]}
{"compound": "CCN1C[C@]2(COC(=O)c3ccccc3N3C(=O)C[C@H](C)C3=O)CC[C@H](OC)[C@@]34[C@@H]5C[C@H]6[C@H](OC)[C@@H]5[C@](O)(C[C@@H]6OC)[C@@](O)([C@@H](OC)[C@H]23)[C@@H]14", "note": "[methyllycaconitine]", "values": [{"measurement": "enabling of function/expression of homomeric α10 nAChRs", "setting": "homomeric α10 nAChRs", "result": "can enable the function of homomeric α10 mammalian nAChRs"}]}
{"compound": "CN1CCC[C@H]1c1cccnc1", "note": "[nicotine]", "values": [{"measurement": "action of nicotine on wild-type α9α10 nAChRs", "setting": "α9α10 nAChRs", "result": "antagonist"}, {"measurement": "EC50", "setting": "[V13′T]α10 nAChRs [4]", "result": 350, "unit": "µM"}, {"measurement": "Hill slope", "setting": "[V13′T]α10 nAChRs [4]", "result": "0.59 (0.49–0.69)"}, {"measurement": "agonist class", "setting": "[V13′T]α10 nAChRs [4]", "result": "partial agonist"}, {"measurement": "efficacy relative to ACh", "setting": "[V13′T]α10 nAChRs [4]", "result": "lower efficacy than ACh"}]}
{"compound": "O=C1C[C@@H]2OCC=C3CN4CC[C@]56c7ccccc7N1[C@H]5[C@H]2[C@H]3C[C@H]46", "note": "[strychnine]", "values": [{"measurement": "block of α9α10 nAChRs by strychnine", "setting": "α9α10 nAChRs", "result": "blocks"}, {"measurement": "block of homomeric α9 nAChRs by strychnine", "setting": "α9 homomers", "result": "blocks"}, {"measurement": "enabling of function/expression of homomeric α10 nAChRs", "setting": "homomeric α10 nAChRs", "result": "enable the expression of human α10 nAChRs; also recorded: enable functional expression of wild-type α10 homomers in oocytes; also recorded: can enable the function of homomeric α10 mammalian nAChRs"}, {"measurement": "ACh-evoked response, percent of baseline", "setting": "[V13′T]α10 nAChRs [5]", "result": "572 ± 131", "unit": "%"}, {"measurement": "effect of strychnine at low concentrations", "setting": "[V13′T]α10 nAChRs [5]", "result": "enhanced [V13′T]α10 responses to ACh"}, {"measurement": "effect of strychnine at the highest concentration", "setting": "[V13′T]α10 nAChRs [5]", "result": "inhibitory effect; also recorded: almost entirely inhibited"}, {"measurement": "effect of strychnine on [V13′T]α10 + RIC-3 responses", "setting": "[V13′T]α10 nAChRs [5]", "result": "further enhanced"}, {"measurement": "enhancement of ACh-evoked response", "setting": "[V13′T]α10 nAChRs [5]", "result": "572 ± 131", "unit": "%"}, {"measurement": "maximum enhancement of ACh responses", "setting": "[V13′T]α10 nAChRs [5]", "result": "greater than 5 fold"}, {"measurement": "potentiation of ACh-evoked currents (in words)", "setting": "[V13′T]α10 nAChRs [5]", "result": "rapid, significant potentiation"}, {"measurement": "strychnine concentration of maximum potentiation", "setting": "[V13′T]α10 nAChRs [5]", "result": 1, "unit": "µM"}, {"measurement": "block of homomeric α7 nAChRs by strychnine", "setting": "homomeric α7 nAChRs", "result": "blocks"}, {"measurement": "effect of strychnine on α10 nAChR function, higher concentrations", "setting": "human α10 nAChRs", "result": "block α10 nAChR function"}, {"measurement": "effect of strychnine on α10 plus RIC-3 oocytes, lower concentrations", "setting": "human α10 nAChRs", "result": "further substantial increase in expression"}]}
{"compound": "dihydro-β-erythroidine", "values": [{"measurement": "effect on ACh-evoked response", "setting": "[V13′T]α10 nAChRs [5]; 3 μM, 10 min, n = 5", "result": "no significant activity; also recorded: not significantly altered"}]}
{"compound": "α-bungarotoxin", "values": [{"measurement": "block of α9α10 nAChRs by α-bungarotoxin", "setting": "α9α10 nAChRs", "result": "sensitive; also recorded: blocks"}, {"measurement": "block of muscle type nAChRs by α-bungarotoxin", "setting": "muscle type nAChRs", "result": "blocks"}, {"measurement": "sensitivity of α9 to α-bungarotoxin", "setting": "α9 homomers", "result": "sensitive"}, {"measurement": "Hill slope", "setting": "[V13′T]α10 nAChRs [5]", "result": "−1.17"}, {"measurement": "IC50", "setting": "[V13′T]α10 nAChRs [5]", "result": 0.331, "unit": "µM"}, {"measurement": "block of α7 homomers by α-bungarotoxin", "setting": "homomeric α7 nAChRs", "result": "blocks"}, {"measurement": "antagonist sensitivity of α10 homomers", "setting": "human α10 nAChRs", "result": "blocked; also recorded: sensitive"}, {"measurement": "block of ACh-evoked current", "setting": "human α10 nAChRs", "result": "completely blocked; also recorded: sensitive; also recorded: inhibited"}]}
